Assay results published in patent publication US9499493B2, “2,4-pyrimidinediamine compounds and their uses” (Rigel Pharmaceuticals, Inc., priority 2002, dated 2016).
pIC50: −log10 of the molar value.

Columns and labels:
[1] = system: cultured human mast cells (CHMC); assay: CHMC low cell density ionomycin activation: tryptase assay; format: cell-based
[2] = system: cultured human mast cells (CHMC); assay: CHMC low cell density IgE activation: tryptase assay; format: cell-based; settings: anti-IgE
Method in brief: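 CHMC resuspended in pre-warmed MT buffer at 1000-1500 cells/well (donor-dependent) and preincubated 1 hr at 37° C, then stimulated with anti-IgE for 30 min at 37° C; unstimulated wells got MT alone. Supernatant tryptase activity read with tryptase substrate after 30 min at room temperature.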

| Structure (SMILES) | pIC50 [1] | pIC50 [2] |
| --- | --- | --- |
| CC1(C)Oc2ccc(Nc3nc(Nc4ccc5c(c4)NC(=O)C(F)(F)O5)ncc3F)cc2NC1=O [R940351, N2-[(2,2-Difluoro-4H-benzo[1,4]oxazin-3-one)-6-yl]-N4-[(2,2-dimethyl-4H-benzo[1,4]oxazin-3-one)-6-yl]-5-fluoro-2,4-pyrimidinediamine] | 5.57 | 6.92 |
| COC(=O)c1cc2cc(Nc3ncc(F)c(Nc4ccc5c(c4)NC(=O)C(F)(F)O5)n3)ccc2o1 [R940353, N4-[(2,2-Difluoro-4H-benzo[1,4]oxazin-3-one)-6-yl]-5-fluoro-N2-(2-methoxycarbonylbenzofur-5-yl)-2,4-pyrimidinediamine] | < 5.00 | 7.04 |
| NC(=O)COc1ccc(Nc2ncc(F)c(Nc3ccc(OCC(N)=O)cc3)n2)cc1 [R945025, N2,N4-Bis[4-(aminocarbonylmethyleneoxy)phenyl]-5-fluoro-2,4-pyrimidinediamine] | < 5.00 | < 5.00 |
| Cn1nnc(COc2ccc(Nc3ncc(F)c(Nc4ccc(OCc5nnn(C)n5)cc4)n3)cc2)n1 [R945046, N2,N4-Bis[4-(2-methyl-1,2,3,4-tetrazol-5-yl)methyleneoxyphenyl]-5-fluoro-2,4-pyrimidinediamine] | < 5.00 | 6.09 |
| Cn1nnc(COc2ccc(Nc3nc(Nc4ccc(OCc5nnnn5C)cc4)ncc3F)cc2)n1 [R945047, 5-Fluoro-N2,N4-[4-(1-methyl-1,2,3,4-tetrazol-5-yl)methyleneoxyphenyl], [4-(2-methyl-1,2,3,4-tetrazol-5-yl)methyleneoxyphenyl]-2,4-pyrimidinediamine] | < 5.00 | 6.07 |
| Cn1nnnc1COc1ccc(Nc2ncc(F)c(Nc3ccc(OCc4nnnn4C)cc3)n2)cc1 [R945048, N2,N4-Bis[4-(1-methyl-1,2,3,4-tetrazol-5-yl)methyleneoxyphenyl]-5-fluoro-2,4-pyrimidinediamine] | < 5.00 | 6.12 |
| COC(=O)COc1ccc(Nc2ncc(F)c(Nc3ccc(OCC(N)=O)cc3)n2)cc1 [R945052, N4-(4-Aminocarbonylmethyleneoxyphenyl)-5-fluoro-N2-(4-methoxycarbonylmethyleneoxyphenyl)-2,4-pyrimidinediamine] | 5.61 | 6.37 |
| COC(=O)COc1ccc(Nc2ncc(F)c(Nc3ccc(OCC#N)cc3)n2)cc1 [R945053, N4-(4-Cyanomethyleneoxyphenyl)5-fluoro-N2-(4-methoxycarbonylmethyleneoxyphenyl)-2,4-pyrimidinediamine] | 5.83 | 6.93 |
| COC(=O)COc1ccc(Nc2nc(Nc3ccc(OCC(N)=O)cc3)ncc2F)cc1 [R945060, N2-(4-Aminocarbonylmethyleneoxyphenyl)-5-fluoro-N4-(4-methoxycarbonylmethyleneoxyphenyl)-2,4-pyrimidinediamine] | < 5.00 | 6.03 |
| COC(=O)COc1ccc(Nc2nc(Nc3ccc(OCC#N)cc3)ncc2F)cc1 [R945062, N2-(4-Cyanomethyleneoxyphenyl)-5-fluoro-N4-(4-methoxycarbonylmethyleneoxyphenyl)-2,4-pyrimidinediamine] | < 5.00 | 6.20 |
| NC(=O)COc1ccc(Nc2nc(Nc3cccc(O)c3)ncc2F)cc1 [R945063, N4-[4-(Aminocarbonylmethyleneoxy)phenyl]-5-fluoro-N2-(3-hydroxyphenyl)-2,4-pyrimidinediamine] | < 5.00 | 5.81 |
| NC(=O)COc1ccc(Nc2ncc(F)c(Nc3cccc(O)c3)n2)cc1 [R945064, N2-[4-(Aminocarbonylmethyleneoxy)phenyl]-5-fluoro-N4-(3-hydroxyphenyl)-2,4-pyrimidinediamine] | < 5.00 | 6.28 |
| CON=C(N)COc1ccc(Nc2ncc(F)c(Nc3ccc(OCC(N)=NOC)cc3)n2)cc1 [R945096, N2,N4-Bis[4-[2-methoxyimino(amino)ethyleneoxy]phenyl]-5-fluoro-2,4-pyrimidinediamine] | < 5.00 | 5.76 |
| N#CCOc1ccc(Nc2nc(Nc3ccc(OCC(=O)O)cc3)ncc2F)cc1 [R945097, N2-(4-Carboxymethyleneoxyphenyl)-N4-(4-cyanomethyleneoxyphenyl)-5-fluoro-2,4-pyrimidinediamine] | < 5.00 | 5.00 |
| COC(=O)COc1cccc(Nc2ncc(F)c(Nc3cccc(O)c3)n2)c1 [R945118, 5-Fluoro-N4-(3-hydroxyphenyl)-N2-(3-methoxycarbonylmethyleneoxyphenyl)-2,4-pyrimidinediamine] | < 5.00 | 6.18 |
| COC(=O)COc1cccc(Nc2ncc(F)c(Nc3ccc4c(c3)OCCO4)n2)c1 [R945124, N4-(3,4-Ethylenedioxyphenyl)-5-fluoro-N2-(3-methoxycarbonylmethyleneoxyphenyl)-2,4-pyrimidinediamine] | 5.11 | 6.16 |
| COC(=O)COc1cccc(Nc2ncc(F)c(Nc3ccc(OC(C)C)cc3)n2)c1 [R945125, 5-Fluoro-N4-(4-isopropoxyphenyl)-N2-(3-methoxycarbonylmethyleneoxyphenyl)-2,4-pyrimidinediamine] | < 5.00 | 6.05 |
| O=C(O)COc1cccc(Nc2ncc(F)c(Nc3cccc(O)c3)n2)c1 [R945126, N2-(3-Carboxymethyleneoxyphenyl)-5-fluoro-N4-(3-hydroxyphenyl)-2,4-pyrimidinediamine] | < 5.00 | < 5.00 |
| Cc1nc(COc2cccc(Nc3ncc(F)c(Nc4cccc(O)c4)n3)c2)no1 [R945127, 5-Fluoro-N4-(3-hydroxyphenyl)-N2-[3-(5-methyl-1,2,4-oxadiazol-3-yl)methyleneoxyphenyl]-2,4-pyrimidinediamine] | 5.05 | 6.15 |
| Cc1nc(COc2cccc(Nc3ncc(F)c(Nc4ccc(OC(C)C)cc4)n3)c2)no1 [R945129, 5-Fluoro-N4-(4-isopropoxyphenyl)-N2-[3-(5-methyl-1,2,4-oxadiazol-3-yl)methyleneoxyphenyl]-2,4-pyrimidinediamine] | < 5.00 | 6.00 |
| Cc1noc(COc2cccc(Nc3nc(Nc4cccc(O)c4)ncc3F)c2)n1 [R945130, 5-Fluoro-N2-(3-hydroxyphenyl)-N4-[3-(3-methyl-1,2,4-oxadiazol-5-yl)methyleneoxyphenyl]-2,4-pyrimidinediamine] | < 5.00 | 5.73 |
| COC(=O)c1cc2cc(Nc3nc(Nc4cccc(OCc5noc(C)n5)c4)ncc3F)ccc2o1 [R945131, 5-Fluoro-N4-(2-methoxycarbonylbenzofuran-5-yl)-N2-[3-(5-methyl-1,2,4-oxadiazol-3-yl)methyleneoxyphenyl]-2,4-pyrimidinediamine] | < 5.00 | 6.11 |
| Cc1nc(COc2cccc(Nc3nc(Nc4cccc(O)c4)ncc3F)c2)no1 [R945132, 5-Fluoro-N2-(3-hydroxyphenyl)-N4-[3-(5-methyl-1,2,4-oxadiazol-3-yl)methyleneoxyphenyl]-2,4-pyrimidinediamine] | 5.06 | 6.24 |
| Cc1nc(COc2cccc(Nc3nc(Nc4ccc(OCC(N)=O)cc4)ncc3F)c2)no1 [R945133, N2-[4-(Aminocarbonylmethoxy)phenyl]-5-fluoro-N4-[3-(5-methyl-1,2,4-oxadiazol-3-yl)methyleneoxyphenyl]-2,4-pyrimidinediamine] | < 5.00 | 5.97 |
